# Results reported in article doi:10.1101/2021.05.19.444834v1 (bioRxiv, 2021).
# What was measured:
# O-methyltransferase ThfM = test: In vitro aspartimide formation by ThfM alone; assay type: biochemical, Thermobifida fusca; conditions: 10 μM substrate, 1 μM ThfM, 0.4 mM SAM, 100 mM sodium phosphate, 37 °C; LC-MS
# ThfB and ThfM = test: In vitro reconstitution with ThfB and ThfM together; assay type: biochemical, Thermobifida fusca; conditions: 10 μM ThfA, 1 μM ThfB, 1 μM ThfM, 0.4 mM SAM, ATP, no KCl, 37 °C; 5 h; LC-MS
substance,measurement,setting,value
ThfA,modification by ThfM alone,O-methyltransferase ThfM,no reaction
same,conversion to triply dehydrated product,ThfB and ThfM,~ 75%
